Results on 1 compound are retold here after patent US8003093B2, “B cell-based vaccine loaded with the ligand of natural killer T cell and antigen” (Seoul National University Industry Foundation, priority 2006, dated 2011).

Data set [1] in a line: Dose escalation study of αGalCer. Type of data set: in vivo. The text has this: There is a little, if ever, chance to show a slight systemic side effect (Giaccone et al., Clin. Cancer Res., 8: 3702, 2002).
For data set [2] the following is noted: rodents and apes; cited from earlier work.
For data set [3] the following is noted: 2200 μg/kg, mouse; cited from earlier work.
The conditions of data set [4]: clinical trial, systemic administration; cited from earlier work.

In the case of `CCCCCCCCCCCCCCCCCCCCCCCCCC(=O)N[C@@H](CO[C@H]1O[C@H](CO)[C@H](O)[C@H](O)[C@H]1O)[C@H](O)[C@H](O)CCCCCCCCCCCCCC` [αGalCer, Alpha-galactosylceramide], the dose-limiting toxicity entry in data set [1] is recorded as “did not cause dose-limiting toxicity”. Also, the toxicity entry in data set [2] is “doesn't seem to induce toxicity”. Besides, in data set [3], the side effects entry was “No side effects”. In addition, the side effect entry in data set [4] is “a light headache”.
